One assay deals with E. faecalis (JH2-2). Description: MIC, broth microdilution (CLSI). The format is cell-based. The settings on record: Enterococcus faecalis. Here is the method: (§1) S. aureus, S. epidermidis, E. faecalis, and E. faecium strains were routinely cultivated on tryptic soy agar (TSA) and grown for 18 h at 37 °C. S. aureus single colonies were subsequently transferred into 2 mL of tryptic soy broth (TSB) and grown for a further 18 h at 37 °C while being shaken at 180 rpm. S. pyogenes, S. agalactiae, and S. dysgalactiae strains were routinely cultured on TSA supplemented with 5% sheep blood and grown for 18 h at 37 °C with 5% CO2. E. coli was grown in LB broth at 37 °C. For LtaS-deficient strains, TSB was supplemented with 0.5 M NaCl to provide an osmotically balanced environment and instead grown at 30 °C. For strains harboring the pRMC2 tetracycline inducible vector,[61] the growth medium was supplemented with 10 μg/mL chloramphenicol and […] anhydrotetracycline hydrochloride (Sigma). Phenylalanine-arginine β-naphthylamide (PAβN) (Sigma) was dissolved in sterile water.
(§2) B. subtilis, staphylococcal, and enterococcal strains were grown in Mueller Hinton broth (MHB), while streptococcal strains were grown in MHB supplemented with 5% laked horse blood. All strains were grown for 18 h at 37 °C. The overnight cultures were subsequently subcultured 1:200 and grown to the exponential phase (OD600nm = 0.5–0.6) in fresh broth. 1771 and its derivatives 9–14 were reconstituted in DMSO and further diluted by performing a 1:2 serial dilution ranging between 256 and 0.125 μg/mL in a 96-well microtiter plate. One hundred microliters of 0.5 McFarland standardized inoculum (approximately equal to 5 × 10^5 cfu) were then dispensed into each well in the 96-well microtiter plate. The plate was incubated for 18 h at 37 °C.
In general terms: In broth dilution the organism is exposed to a series of concentrations in liquid medium.

In another assay the test system is S. agalactiae. The assay is described as follows: MIC, broth microdilution (CLSI). Conditions: Streptococcus agalactiae. The format is cell-based. Here is the method:
as §1, §2

A further assay has as its system E. faecium (C68). Description: MIC, broth microdilution (CLSI). The format is cell-based. Conditions: Enterococcus faecium. Here is the method: as §1, §2
In another assay the test system is S. dysgalactiae. The assay is described as follows: MIC, broth microdilution (CLSI). The format is cell-based. Conditions: Streptococcus dysgalactiae. Here is the method:
as §1, §2

The subject of another assay is S. pyogenes. The assay is described as follows: MIC, broth microdilution (CLSI). The format is cell-based. The settings on record: Streptococcus pyogenes. Here is the method:
as §1, §2

Another assay concerns B. subtilis (W168). The assay is described as follows: MIC, broth microdilution (CLSI). The format is cell-based. The settings on record: Bacillus subtilis. Here is the method:
as §2

The subject of a further assay is S. aureus. The assay is described as follows: Checkerboard MIC analysis with antistaphylococcal antibiotics (FIC index). The format is cell-based. Conditions: lowest possible value. Here is the method:
Antibiotic combination 1771 Compound 13
Figure S1. Checkerboard analysis of 1771 and compound 13 in combination with clinically relevant antibiotics. Checkerboard analysis was repeated twice for each antibiotic combination, and the mean bacterial growth (OD 600nm) plotted as a heat map with 1771/compound 13 concentration of the y-axis and test antibiotic concentration on the x axis.
FIC indexes were calculated for each combination and the lowest possible value presented. […]
Supplementary Materials and Methods
Synergistic activity with clinically relevant antibiotics
The synergistic ability of 1771 and 13 was achieved using the chequerboard micro-broth dilution method. Antibiotic partners tested included: oxacillin, daptomycin, vancomycin, gentamicin, and linezolid with starting concentrations of 256 µg/ml, 8 µg/ml, 8 µg/ml, 4 µg/ml, and 8 µg/ml respectively. Overnight cultures were sub-cultured 1:200 in fresh MHB and grown to optical density of OD600nm of 0.5-0.6 and prepared according to the MIC analysis. Following an 18 h incubation at 37 °C the sum of the fractional inhibitory […]
using the equation ΣFIC = FICA +FICB = (MICA in combination with B/MICA) + (MICB in combination with A/MICB). The resulting value was interpreted according to the following rules: synergistic (FIC ≤ 0.5), additive (FIC >0.5, <1) or indifferent (FIC ≥ 1 <4). […]

The next assay concerns S. aureus strain SH1000. The assay is described as follows: Biofilm prevention, crystal violet assay. The settings on record: for concentration causing a 50% reduction in biofilm formation: SH1000, 24 h. The format is cell-based, Staphylococcus aureus. Here is the method: An indication of the biofilm prevention capabilities of 1771 and its derivatives 9–14 was achieved through the application of the crystal violet assay. S. aureus strain SH1000 and S. epidermidis strain RP62A were used, as they are strong biofilm formers. Overnight cultures were diluted 1:200 in fresh TSB containing 0.5% glucose (TSB-G), and 100 μL was added to individual wells in a 96-well microtiter plate. One hundred microliters of 1771 and 9–14 were diluted in TSB-G and added to bacteria at a final concentration ranging from 256 to 0.25 μg/mL with subsequent incubation for 24 h at 37 °C in a static incubator. Following incubation, biofilms were washed four times with ddH2O before being stained with 150 μL of 0.1% crystal violet for 30 min at room temperature. Following a further four washes in ddH2O, wells were resuspended in 200 μL of 7% acetic acid. The absorbance intensity of the crystal violet was measured at abs595nm in a Sunrise plate reader. Biomass formed was measured as a percentage of the no-compound control.

The next assay relates to E. coli strain K12. Description: Growth inhibition in combination with PAβN. The format is cell-based, Escherichia coli. Conditions: for concentration at which growth was completely inhibited: E. coli K12, 50 μg/mL PAβN; for MIC: Escherichia coli, E. coli K12, 100 μg/mL PAβN. Here is the method:
Phenylalanine-arginine β-naphthylamide (PAβN) is a well-studied efflux pump inhibitor, which can also permeabilize the outer membrane of Gram-negative organisms.[40] […] Without the addition of PAβN (0 μg/mL), neither 1771 nor 13 had any growth inhibitory activity at concentrations up to 64 μg/mL. With the addition of 25 μg/mL of PAβN, the E. coli strain K12 could still grow in the presence of 64 μg/mL of 1771 or 13; however, the growth rate was severely impacted in a dose-dependent manner. […] To further evaluate the Gram-negative coverage of 1771 and 13, we also tested 1771 or 13 in combination with PAβN against Pseudomonas aeruginosa strain PAO1, Klebsiella pneumoniae strain 699 (clinical isolate), and Acinetobacter baumannii strain DF1000 (clinical isolate) (Figure S6a–c).
Figure 8 Permeabilization of the outer membrane renders E. coli susceptible to 1771 and 13. Bacterial growth curves of (a) 1771 and (b) 13 (0–64 μg/mL) in combination with 0, 25, 50, and 100 μg/mL of PAβN. The bacterial growth (OD600nm) was plotted against time following 18 h of growth at 37 °C. The icons represent the mean of three biological replicates.

Where [1] appears, read: NCTC10238, S. dysgalactiae (NCTC 10238).
The mark [2] stands for this setting: NCTC13762, S. dysgalactiae (NCTC 13762).
[3] abbreviates: NCTC8198, S. pyogenes (NCTC 8198).
Where [4] appears, read: NCTC12048, S. pyogenes (NCTC 12048).
[5] abbreviates: E. coli K12, 25 μg/mL PAβN, growth rate severely impacted dose-dependently.
The mark [6] stands for this setting: E. coli K12, without PAβN (0 μg/mL), 18 h.

Converted amounts (≈) assume the structure as drawn. Some results are limits rather than exact numbers.

The source of these data is paper PMC10644342, “Improved Antibacterial Activity of 1,3,4-Oxadiazole-Based Compounds That Restrict Staphylococcus aureus Growth Independent of LtaS Function” (ACS Infectious Diseases, 2023).

As for `O=C(COC(=O)Cc1coc2ccc3ccccc3c12)Nc1nnc(-c2ccccc2)o1` [Compound 1771, 2-Oxo-2-((5-phenyl-1,3,4-oxadiazol-2-yl)amino)ethyl 2-(Naphtho[2,1-b]furan-1-yl)acetate, reference compound], the MIC (in general, the lowest concentration found to suppress growth) in the assay on E. faecalis (JH2-2) was 16 µg/mL (≈ 37.4 µM); against S. agalactiae (S. agalactiae (18R521)), 128 µg/mL (≈ 299 µM); against S. agalactiae (S. agalactiae (COH1)) it was > 128 µg/mL; in the assay on E. faecium (C68), > 128 µg/mL; against S. dysgalactiae (setting [1]), > 128 µg/mL; in the assay on S. dysgalactiae (setting [2]), 128 µg/mL (≈ 299 µM). In addition, the MIC with S. pyogenes (setting [3]) is 32 to 64 µg/mL (≈ 74.9 to 150 µM); in the assay with S. pyogenes (setting [4]), 128 µg/mL (≈ 299 µM); with B. subtilis (W168), 4 to 8 µg/mL (≈ 9.36 to 18.7 µM); in the assay on E. coli strain K12, 4 µg/mL. Further, the FIC index with S. aureus (combination with daptomycin) worked out at 0.625; in the assay on S. aureus (combination with gentamicin), 0.375; with S. aureus (combination with linezolid) it was 1; in the assay on S. aureus (combination with oxacillin), 0.75; in the assay on S. aureus (combination with vancomycin), 1. The “concentration causing a 50% reduction in biofilm formation” value in the assay with S. aureus strain SH1000 was 4 µg/mL. The growth inhibitory concentration in the assay with E. coli strain K12 (setting [5]) and in the assay on E. coli strain K12 (setting [6]) was > 64 µg/mL throughout. Moreover, in the assay on E. coli strain K12, the “concentration at which growth was completely inhibited” value was found to be 64 µg/mL.
Regarding `O=C(COC(=O)Cc1coc2ccc3ccccc3c12)Nc1nnc(-c2ccc(S(F)(F)(F)(F)F)cc2)o1` [Compound 13, 2-Oxo-2-((5-(4-(pentafluoro-l6-sulfaneyl)phenyl)-1,3,4-oxadiazol-2-yl)amino)ethyl 2-(Naphtho[2,1-b]furan-1-yl)acetate], the MIC in the assay on E. faecalis (JH2-2) is 2 µg/mL (≈ 3.61 µM); in the assay on S. agalactiae (S. agalactiae (18R521)), 64 µg/mL (≈ 116 µM); with S. agalactiae (S. agalactiae (COH1)), 128 µg/mL (≈ 231 µM); in the assay with E. faecium (C68), > 128 µg/mL; against S. dysgalactiae (setting [1]) it was 64 µg/mL (≈ 116 µM); in the assay with S. dysgalactiae (setting [2]) it was 64 µg/mL (≈ 116 µM). The minimum inhibitory concentration (MIC) was 16 to 32 µg/mL (≈ 28.9 to 57.8 µM) against S. pyogenes (setting [3]), 64 µg/mL (≈ 116 µM) in the assay with S. pyogenes (setting [4]), 0.5 to 1 µg/mL (≈ 0.903 to 1.81 µM) against B. subtilis (W168) and 1 µg/mL with E. coli strain K12. Besides, the FIC index in the assay with S. aureus (combination with daptomycin) is listed as 0.75; in the assay on S. aureus (combination with gentamicin), 0.75; with S. aureus (combination with linezolid), 0.515; in the assay with S. aureus (combination with oxacillin), 0.75; in the assay with S. aureus (combination with vancomycin), 1. The “biofilm prevention compared with 1771” value in the assay with S. aureus strain SH1000 (SH1000) is given as “better than 1771”. For the same compound, the “concentration causing a 50% reduction in biofilm formation” value in the assay with S. aureus strain SH1000 was found to be 0.25 µg/mL. Further, the growth inhibitory concentration in the assay with E. coli strain K12 (setting [5]) and in the assay on E. coli strain K12 (setting [6]) was > 64 µg/mL each time. Also, the “concentration at which growth was completely inhibited” value in the assay with E. coli strain K12 was 64 µg/mL.
